Assay results: ChEMBL document CHEMBL1201861, “Genomics of Drug Sensitity in Cancer screening data, Wellcome Trust Sanger Institute”

How the values were obtained:
Assay in all cases: cells
KURAMOCHI = assay type: functional, cell-based, Homo sapiens;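 note: growth inhibition of KURAMOCHI cells, read out with a cell viability assay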
Description: SANGER: Inhibition of human KURAMOCHI cell growth in a cell viability assay.

NCI-H720 = assay type: functional, cell-based, Homo sapiens;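 note: growth inhibition of human NCI-H720 cells determined by a cell viability assay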
Description: SANGER: Inhibition of human NCI-H720 cell growth in a cell viability assay.

8-MG-BA = assay type: functional, cell-based, Homo sapiens;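 note: growth inhibition of 8-MG-BA cells, read out with a cell viability assay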
Description: SANGER: Inhibition of human 8-MG-BA cell growth in a cell viability assay.

NCI-H1299 = assay type: functional, cell-based, Homo sapiens;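 note: growth inhibition of human NCI-H1299 cells, read out by a cell viability assay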
Description: SANGER: Inhibition of human NCI-H1299 cell growth in a cell viability assay.

D-392MG = assay type: functional, cell-based, Homo sapiens
MZ7-mel = assay type: functional, cell-based, Homo sapiens;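 note: growth inhibition of human MZ7-mel cells, measured by a cell viability assay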
Description: SANGER: Inhibition of human MZ7-mel cell growth in a cell viability assay.

TE-12 = assay type: functional, cell-based, Homo sapiens;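 note: growth inhibition of TE-12 cells, read out by a cell viability assay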
Description: SANGER: Inhibition of human TE-12 cell growth in a cell viability assay.

HDLM-2 = assay type: functional, cell-based, Homo sapiens;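 note: cell viability assay measuring suppression of HDLM-2 proliferation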
Description: SANGER: Inhibition of human HDLM-2 cell growth in a cell viability assay.

LOX IMVI = assay type: functional, cell-based, Homo sapiens
Description: SANGER: Inhibition of human LOXIMVI cell growth in a cell viability assay.

NCI-H1395 = assay type: functional, cell-based, Homo sapiens;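 note: cell viability assay read-out quantifying reduced proliferation of human NCI-H1395 cells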
Description: SANGER: Inhibition of human NCI-H1395 cell growth in a cell viability assay.

no-11 = assay type: functional, cell-based, Homo sapiens;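 note: growth inhibition of human NO-11 cells, read out with a cell viability assay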
Description: SANGER: Inhibition of human no-11 cell growth in a cell viability assay.

COLO-668 = assay type: functional, cell-based, Homo sapiens
Description: SANGER: Inhibition of human COLO-668 cell growth in a cell viability assay.

EW-1 = assay type: functional, cell-based, Homo sapiens
Description: SANGER: Inhibition of human EW-1 cell growth in a cell viability assay.

GAK = assay type: functional, cell-based, Homo sapiens;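 note: cell growth inhibition read out by a cell viability assay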
Description: SANGER: Inhibition of human GAK cell growth in a cell viability assay.

HCC 2998 = assay type: functional, cell-based, Homo sapiens;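 note: growth inhibition of human HCC2998 cells, measured with a cell viability read-out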
Description: SANGER: Inhibition of human HCC2998 cell growth in a cell viability assay.

A253 cell line = assay type: functional, cell-based, Homo sapiens; settings: Homo sapiens, A253;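 note: growth inhibition of A253 cells, read out with a cell viability assay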
Description: SANGER: Inhibition of human A253 cell growth in a cell viability assay.

KM-H2 = assay type: functional, cell-based, Homo sapiens;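 note: growth inhibition of KM-H2 cells, read out by a cell viability assay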
Description: SANGER: Inhibition of human KM-H2 cell growth in a cell viability assay.

BB30-HNC = assay type: functional, cell-based, Homo sapiens;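 note: growth inhibition of the cultured cell line, read out by a cell viability assay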
Description: SANGER: Inhibition of human BB30-HNC cell growth in a cell viability assay.

EW-16 = assay type: functional, cell-based, Homo sapiens;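 note: growth inhibition of human EW-16 cells, read out as cell viability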
Description: SANGER: Inhibition of human EW-16 cell growth in a cell viability assay.

LAN-6 = assay type: functional, cell-based, Homo sapiens;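 note: growth inhibition of LAN-6 cells, determined with a cell viability assay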
Description: SANGER: Inhibition of human LAN-6 cell growth in a cell viability assay.

EW-11 = assay type: functional, cell-based, Homo sapiens;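 note: growth inhibition of human EW-11 cells, measured with a cell viability assay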
Description: SANGER: Inhibition of human EW-11 cell growth in a cell viability assay.

COLO-800 = assay type: functional, cell-based, Homo sapiens;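 note: growth inhibition of COLO-800 cells, read out with a cell viability assay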
Description: SANGER: Inhibition of human COLO-800 cell growth in a cell viability assay.

A388 = assay type: functional, cell-based, Homo sapiens;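 note: growth inhibition of human A388 cells, read out with a cell viability assay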
Description: SANGER: Inhibition of human A388 cell growth in a cell viability assay.

TE-8 = assay type: functional, cell-based, Homo sapiens;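 note: growth inhibition of TE-8 cells, measured with a cell viability readout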
Description: SANGER: Inhibition of human TE-8 cell growth in a cell viability assay.

LS-123 = assay type: functional, cell-based, Homo sapiens
Description: SANGER: Inhibition of human LS-123 cell growth in a cell viability assay.

JAR = assay type: functional, cell-based, Homo sapiens;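 note: growth inhibition of human JAR cells determined with a cell viability assay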
Description: SANGER: Inhibition of human JAR cell growth in a cell viability assay.

COLO-320-HSR = assay type: functional, cell-based, Homo sapiens;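 note: growth inhibition of COLO-320-HSR cells, determined with a cell viability assay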
Description: SANGER: Inhibition of human COLO-320-HSR cell growth in a cell viability assay.

LB771-HNC = assay type: functional, cell-based, Homo sapiens;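 note: growth inhibition of LB771-HNC human cells, read out with a cell viability assay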
Description: SANGER: Inhibition of human LB771-HNC cell growth in a cell viability assay.

BV-173 = assay type: functional, cell-based, Homo sapiens
Description: SANGER: Inhibition of human BV-173 cell growth in a cell viability assay.

SHP77 = assay type: functional, cell-based, Homo sapiens, SHP-77;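 note: growth inhibition of human SHP-77 cells measured by a cell viability assay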
Description: SANGER: Inhibition of human SHP-77 cell growth in a cell viability assay.

HH = assay type: functional, cell-based, Homo sapiens
Description: SANGER: Inhibition of human HH cell growth in a cell viability assay.

EOL1 = assay type: functional, cell-based, Homo sapiens;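 note: growth inhibition of EoL-1 cells, read out by a cell viability assay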
Description: SANGER: Inhibition of human EoL-1-cell cell growth in a cell viability assay.

ALL-PO = assay type: functional, cell-based, Homo sapiens;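 note: growth inhibition of ALL-PO cells, read out by a cell viability assay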
Description: SANGER: Inhibition of human ALL-PO cell growth in a cell viability assay.

KNS-42 = assay type: functional, cell-based, Homo sapiens;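 note: growth inhibition of KNS-42 cells, read out with a cell viability assay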
Description: SANGER: Inhibition of human KNS-42 cell growth in a cell viability assay.

KS-1 = assay type: functional, cell-based, Homo sapiens;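 note: growth inhibition of KS-1 cells, read out with a cell viability assay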
Description: SANGER: Inhibition of human KS-1 cell growth in a cell viability assay.

ML-2 = assay type: functional, cell-based, Homo sapiens;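 note: growth inhibition of ML-2 cells, measured with a cell viability readout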
Description: SANGER: Inhibition of human ML-2 cell growth in a cell viability assay.

NB17 = assay type: functional, cell-based, Homo sapiens;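 note: growth inhibition of NB17 cells, read out with a cell viability assay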
Description: SANGER: Inhibition of human NB17 cell growth in a cell viability assay.

CGTH-W-1 = assay type: functional, cell-based, Homo sapiens;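 note: growth inhibition of human CGTH-W-1 cells measured by cell viability assay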
Description: SANGER: Inhibition of human CGTH-W-1 cell growth in a cell viability assay.

COLO-684 = assay type: functional, cell-based, Homo sapiens
Description: SANGER: Inhibition of human COLO-684 cell growth in a cell viability assay.

D283 Med = assay type: functional, cell-based, Homo sapiens
Description: SANGER: Inhibition of human D-283MED cell growth in a cell viability assay.

COLO-829 = assay type: functional, cell-based, Homo sapiens
Description: SANGER: Inhibition of human COLO-829 cell growth in a cell viability assay.

ES8 = assay type: functional, cell-based, Homo sapiens;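 note: growth inhibition of human ES8 cells, read out with a cell viability assay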
Description: SANGER: Inhibition of human ES8 cell growth in a cell viability assay.

DB = assay type: functional, cell-based, Homo sapiens
Description: SANGER: Inhibition of human DB cell growth in a cell viability assay.

TE-5 = assay type: functional, cell-based, Homo sapiens;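 note: inhibition of cell growth, read out by a cell viability assay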
Description: SANGER: Inhibition of human TE-5 cell growth in a cell viability assay.

Calu-6 = assay type: functional, cell-based, Homo sapiens;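 note: growth of human Calu-6 cells, read out by a cell viability assay, IC50 marking inhibition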
Description: SANGER: Inhibition of human Calu-6 cell growth in a cell viability assay.

TE-9 = assay type: functional, cell-based, Homo sapiens;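 note: cell growth inhibition, measured with a cell viability readout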
Description: SANGER: Inhibition of human TE-9 cell growth in a cell viability assay.

HL-60 = assay type: functional, cell-based, Homo sapiens;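 note: growth inhibition of human HL-60 cells, read out with a cell viability assay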
Description: SANGER: Inhibition of human HL-60 cell growth in a cell viability assay.

HCE-4 = assay type: functional, cell-based, Homo sapiens;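 note: cell viability assay measuring inhibition of growth in the human HCE-4 cell line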
Description: SANGER: Inhibition of human HCE-4 cell growth in a cell viability assay.

SW982 = assay type: functional, cell-based, Homo sapiens;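 note: growth inhibition of SW982 cells, read out with a cell viability assay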
Description: SANGER: Inhibition of human SW982 cell growth in a cell viability assay.

COc1cc2ncn(-c3cc(OCc4ccccc4S(C)(=O)=O)c(C#N)s3)c2cc1OC [GSK-319347A]
IC50 (KURAMOCHI; Homo sapiens, KURAMOCHI): > 5 µM
IC50 (NCI-H720; Homo sapiens, NCI-H720): > 5 µM
IC50 (8-MG-BA; Homo sapiens, 8-MG-BA): > 5 µM
IC50 (NCI-H1299; Homo sapiens, NCI-H1299): > 5 µM
IC50 (D-392MG; Homo sapiens, D-392MG): > 5 µM
IC50 (MZ7-mel; Homo sapiens, MZ7-mel): > 5 µM
IC50 (TE-12; Homo sapiens, TE-12): > 5 µM
IC50 (HDLM-2; Homo sapiens, HDLM-2): > 5 µM
IC50 (LOX IMVI; Homo sapiens, LOX IMVI): > 5 µM
IC50 (NCI-H1395; Homo sapiens, NCI-H1395): > 5 µM
IC50 (no-11; Homo sapiens): > 5 µM
IC50 (COLO-668; Homo sapiens, COLO-668): > 5 µM
IC50 (EW-1; Homo sapiens, EW-1): > 5 µM
IC50 (GAK; Homo sapiens, GAK): > 5 µM
IC50 (HCC 2998; Homo sapiens, HCC 2998): > 5 µM
IC50 (A253 cell line): > 5 µM
IC50 (KM-H2; Homo sapiens, KM-H2): > 5 µM
IC50 (BB30-HNC; Homo sapiens, BB30-HNC): > 5 µM
IC50 (EW-16; Homo sapiens, EW-16): > 5 µM
IC50 (LAN-6; Homo sapiens, LAN-6): > 5 µM
IC50 (EW-11; Homo sapiens, EW-11): > 5 µM
IC50 (COLO-800; Homo sapiens, COLO-800): > 5 µM
IC50 (A388; Homo sapiens, A388): > 5 µM
IC50 (TE-8; Homo sapiens, TE-8): > 5 µM
IC50 (LS-123; Homo sapiens, LS-123): > 5 µM
IC50 (JAR; Homo sapiens, JAR): > 5 µM
IC50 (COLO-320-HSR; Homo sapiens, COLO-320-HSR): > 5 µM
IC50 (LB771-HNC; Homo sapiens, LB771-HNC): > 5 µM
IC50 (BV-173; Homo sapiens, BV-173): > 5 µM
IC50 (SHP77; Homo sapiens, SHP77): > 5 µM
IC50 (HH; Homo sapiens, HH): > 5 µM
IC50 (EOL1; Homo sapiens, EOL1): > 5 µM
IC50 (ALL-PO; Homo sapiens, ALL-PO): > 5 µM
IC50 (KNS-42; Homo sapiens, KNS-42): > 5 µM
IC50 (KS-1; Homo sapiens, KS-1): > 5 µM
IC50 (ML-2; Homo sapiens, ML-2): > 5 µM
IC50 (NB17; Homo sapiens, NB17): > 5 µM
IC50 (CGTH-W-1; Homo sapiens, CGTH-W-1): > 5 µM
IC50 (COLO-684; Homo sapiens, COLO-684): > 5 µM
IC50 (D283 Med; Homo sapiens, D283 Med): > 5 µM
IC50 (COLO-829; Homo sapiens, COLO-829): > 5 µM
IC50 (ES8; Homo sapiens, ES8): > 5 µM
IC50 (DB; Homo sapiens, DB): > 5 µM
IC50 (TE-5; Homo sapiens, TE-5): > 5 µM
IC50 (Calu-6; Homo sapiens, Calu-6): > 5 µM
IC50 (TE-9; Homo sapiens, TE-9): > 5 µM
IC50 (HL-60; Homo sapiens, HL-60): > 5 µM

Cn1cnc2c(F)c(Nc3ccc(Br)cc3Cl)c(C(=O)NOCCO)cc21 [SELUMETINIB]
IC50 (KURAMOCHI; Homo sapiens, KURAMOCHI): > 4 µM
IC50 (NCI-H720; Homo sapiens, NCI-H720): > 4 µM
IC50 (8-MG-BA; Homo sapiens, 8-MG-BA): > 4 µM
IC50 (NCI-H1299; Homo sapiens, NCI-H1299): > 4 µM
IC50 (D-392MG; Homo sapiens, D-392MG): > 4 µM
IC50 (MZ7-mel; Homo sapiens, MZ7-mel): > 4 µM
IC50 (TE-12; Homo sapiens, TE-12): > 4 µM
IC50 (HDLM-2; Homo sapiens, HDLM-2): > 4 µM
IC50 (LOX IMVI; Homo sapiens, LOX IMVI): 0.859 µM
IC50 (NCI-H1395; Homo sapiens, NCI-H1395): > 4 µM
IC50 (no-11; Homo sapiens): > 4 µM
IC50 (COLO-668; Homo sapiens, COLO-668): > 4 µM
IC50 (HCE-4; Homo sapiens, HCE-4): > 4 µM
IC50 (EW-1; Homo sapiens, EW-1): > 4 µM
IC50 (GAK; Homo sapiens, GAK): 1.9 µM
IC50 (HCC 2998; Homo sapiens, HCC 2998): 0.269 µM
IC50 (A253 cell line): > 4 µM
IC50 (KM-H2; Homo sapiens, KM-H2): > 4 µM
IC50 (BB30-HNC; Homo sapiens, BB30-HNC): 2.71 µM
IC50 (SW982; Homo sapiens, SW982): > 4 µM
IC50 (EW-16; Homo sapiens, EW-16): > 4 µM
IC50 (LAN-6; Homo sapiens, LAN-6): 2.83 µM
IC50 (EW-11; Homo sapiens, EW-11): > 4 µM
IC50 (COLO-800; Homo sapiens, COLO-800): > 4 µM
IC50 (A388; Homo sapiens, A388): > 4 µM
IC50 (TE-8; Homo sapiens, TE-8): > 4 µM
IC50 (LS-123; Homo sapiens, LS-123): 3.62 µM
IC50 (JAR; Homo sapiens, JAR): > 4 µM
IC50 (COLO-320-HSR; Homo sapiens, COLO-320-HSR): > 4 µM
IC50 (LB771-HNC; Homo sapiens, LB771-HNC): > 4 µM
IC50 (BV-173; Homo sapiens, BV-173): 0.748 µM
IC50 (SHP77; Homo sapiens, SHP77): > 4 µM
IC50 (HH; Homo sapiens, HH): > 4 µM
IC50 (EOL1; Homo sapiens, EOL1): 0.145 µM
IC50 (ALL-PO; Homo sapiens, ALL-PO): > 4 µM
IC50 (KNS-42; Homo sapiens, KNS-42): > 4 µM
IC50 (KS-1; Homo sapiens, KS-1): > 4 µM
IC50 (ML-2; Homo sapiens, ML-2): 0.294 µM
IC50 (NB17; Homo sapiens, NB17): > 4 µM
IC50 (CGTH-W-1; Homo sapiens, CGTH-W-1): > 4 µM
IC50 (COLO-684; Homo sapiens, COLO-684): > 4 µM
IC50 (D283 Med; Homo sapiens, D283 Med): > 4 µM
IC50 (ES8; Homo sapiens, ES8): > 4 µM
IC50 (DB; Homo sapiens, DB): > 4 µM
IC50 (TE-5; Homo sapiens, TE-5): > 4 µM
IC50 (Calu-6; Homo sapiens, Calu-6): > 4 µM
IC50 (TE-9; Homo sapiens, TE-9): > 4 µM
IC50 (HL-60; Homo sapiens, HL-60): 0.0246 µM

CISPLATIN
IC50 (KURAMOCHI; kuramochi): 159 µM
IC50 (NCI-H720; nci-h720): 136 µM
IC50 (8-MG-BA; 8-mg-ba): 5.38 µM
IC50 (NCI-H1299; nci-h1299): 26.8 µM
IC50 (D-392MG; d-392mg): 11.9 µM
IC50 (MZ7-mel; mz7-mel): 6.68 µM
IC50 (TE-12; te-12): 42.6 µM
IC50 (HDLM-2; hdlm-2): 144 µM
IC50 (LOX IMVI; lox imvi): 13.3 µM
IC50 (NCI-H1395; nci-h1395): 43.4 µM
IC50 (no-11): 15.6 µM
IC50 (COLO-668; colo-668): 103 µM
IC50 (HCE-4; hce-4): 9.36 µM
IC50 (EW-1; ew-1): 8.48 µM
IC50 (GAK; gak): 490 µM
IC50 (HCC 2998; hcc 2998): 271 µM
IC50 (KM-H2; km-h2): 450 µM
IC50 (BB30-HNC; bb30-hnc): 24.5 µM
IC50 (SW982; sw982): 23.1 µM
IC50 (EW-16; ew-16): 24.6 µM
IC50 (LAN-6; lan-6): 256 µM
IC50 (EW-11; ew-11): 21 µM
IC50 (COLO-800; colo-800): 20.1 µM
IC50 (A388; a388): 51.9 µM
IC50 (TE-8; te-8): 16.5 µM
IC50 (LS-123; ls-123): 491 µM
IC50 (JAR; jar): 3.35 µM
IC50 (COLO-320-HSR; colo-320-hsr): 338 µM
IC50 (LB771-HNC; lb771-hnc): 89.8 µM
IC50 (BV-173; bv-173): 42.1 µM
IC50 (SHP77; shp-77): 602 µM
IC50 (HH; hh): 22.5 µM
IC50 (EOL1; eol1): 38 µM
IC50 (ALL-PO; all-po): 31.1 µM
IC50 (KNS-42; kns-42): 20.5 µM
IC50 (KS-1; ks-1): 28.3 µM
IC50 (ML-2; ml-2): 163 µM
IC50 (NB17; nb17): 69.4 µM
IC50 (CGTH-W-1; cgth-w-1): 4.55 µM
IC50 (COLO-684; colo-684): 29.1 µM
IC50 (D283 Med; d283 med): 5.85 µM
IC50 (COLO-829; colo-829): 7.27 µM
IC50 (ES8; es8): 3.43 µM
IC50 (DB; db): 2.14 µM
IC50 (TE-5; te-5): 211 µM
IC50 (Calu-6; calu-6): 75.8 µM
IC50 (TE-9; te-9): 15.4 µM
IC50 (HL-60; hl-60): 8.69 µM
